Experimental data reported in ChEMBL document CHEMBL3286285, “A novel 2-oxoindolinylidene inhibitor of bacterial MurD ligase: Enzyme kinetics, protein-inhibitor binding by NMR and a molecular dynamics study” (Eur J Med Chem, 2014).
Values after ≈ are worked out from the molar mass of the structure shown. Active and inactive are the calls of the source. No cut-off for these calls is given here.

Legend:
[1] = target: T1, UDP-N-acetylmuramoylalanine--D-glutamate ligase (Escherichia coli K-12, UniProt P14900); assay: Binding affinity to 6x His-tagged and 15N/13C-labeled Escherichia coli MurD ligase measured at NMR signal 4 by 1H/13C-HSQC 2D NMR spectroscopy
T1 sequence (P14900 whole entry): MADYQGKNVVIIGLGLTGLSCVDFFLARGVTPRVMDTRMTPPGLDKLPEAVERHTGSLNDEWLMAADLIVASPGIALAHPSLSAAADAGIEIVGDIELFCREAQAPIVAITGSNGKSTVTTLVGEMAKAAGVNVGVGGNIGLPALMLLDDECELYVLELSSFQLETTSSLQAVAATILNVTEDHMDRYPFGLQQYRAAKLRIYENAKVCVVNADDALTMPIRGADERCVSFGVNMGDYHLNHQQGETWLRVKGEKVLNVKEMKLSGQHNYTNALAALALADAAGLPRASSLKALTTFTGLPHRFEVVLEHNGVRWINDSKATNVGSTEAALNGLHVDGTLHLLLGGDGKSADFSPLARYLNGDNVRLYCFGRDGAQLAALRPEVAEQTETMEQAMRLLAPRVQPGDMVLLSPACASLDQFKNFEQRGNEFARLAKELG

[2] = target: T1, UDP-N-acetylmuramoylalanine--D-glutamate ligase; assay: Binding affinity to 6x His-tagged and 15N/13C-labeled Escherichia coli MurD ligase measured at NMR signal 123 by 1H/13C-HSQC 2D NMR spectroscopy
Enterococcus faecalis = assay: Antibacterial activity against Enterococcus faecalis ATCC 29212 by broth microdilution method; format: functional
Streptococcus pyogenes = assay: Antibacterial activity against Streptococcus pyogenes ATCC 19615 by broth microdilution method; format: functional
Streptococcus pneumoniae = assay: Antibacterial activity against Streptococcus pneumoniae ATCC 49619 by broth microdilution method; format: functional
Escherichia coli [3] = assay: Antibacterial activity against Escherichia coli ATCC 25922 by broth microdilution method; format: functional
Staphylococcus aureus = assay: Antibacterial activity against Staphylococcus aureus ATCC 25923 by broth microdilution method; format: functional
[4] = target: T1, UDP-N-acetylmuramoylalanine--D-glutamate ligase; assay: Binding affinity to 6x His-tagged and 15N/13C-labeled Escherichia coli MurD ligase measured at NMR signal 43 by 1H/13C-HSQC 2D NMR spectroscopy
[5] = target: T2, UDP-N-acetylmuramoylalanine--D-glutamate ligase (Escherichia coli K-12) (UniProt P14900); assay: Binding affinity to Escherichia coli MurD ligase by saturation transfer difference NMR spectroscopy
T2 sequence (whole entry): T1 sequence (P14900 whole entry)

[6] = target: T1, UDP-N-acetylmuramoylalanine--D-glutamate ligase; assay: Competitive inhibition of Escherichia coli MurD ligase activity using UDP-N-acetylmuramyl-L-alanine as a substrate
Haemophilus influenzae [7] = assay: Antibacterial activity against Haemophilus influenzae ATCC 49247 by broth microdilution method; format: functional
[8] = target: T1, UDP-N-acetylmuramoylalanine--D-glutamate ligase; assay: Binding affinity to 6x His-tagged and 15N/13C-labeled Escherichia coli MurD ligase by 1H/13C-HSQC 2D NMR spectroscopy
Escherichia coli [9] = assay: Antibacterial activity against Escherichia coli ATCC 35218 by broth microdilution method; format: functional
Haemophilus influenzae [10] = assay: Antibacterial activity against Haemophilus influenzae Lek 93 by broth microdilution method; format: functional
[11] = target: T1, UDP-N-acetylmuramoylalanine--D-glutamate ligase; assay: Binding affinity to 6x His-tagged and 15N/13C-labeled Escherichia coli MurD ligase measured at NMR signal 71 by 1H/13C-HSQC 2D NMR spectroscopy
[12] = target: T2, UDP-N-acetylmuramoylalanine--D-glutamate ligase (Escherichia coli K-12); assay: Binding affinity to Escherichia coli MurD ligase by transferred NOESY NMR spectroscopy
[13] = target: T1, UDP-N-acetylmuramoylalanine--D-glutamate ligase; assay: Binding affinity to 6x His-tagged and 15N/13C-labeled Escherichia coli MurD ligase measured at NMR signal 56 by 1H/13C-HSQC 2D NMR spectroscopy
[14] = target: T1, UDP-N-acetylmuramoylalanine--D-glutamate ligase; assay: Binding affinity to 6x His-tagged and 15N/13C-labeled Escherichia coli MurD ligase measured at NMR signal 9 by 1H/13C-HSQC 2D NMR spectroscopy
[15] = target: T1, UDP-N-acetylmuramoylalanine--D-glutamate ligase; assay: Binding affinity to 6x His-tagged and 15N/13C-labeled Escherichia coli MurD ligase measured at NMR signal 13 by 1H/13C-HSQC 2D NMR spectroscopy

Row | Kd [1] [µM] | Kd [2] [µM] | MIC (Enterococcus faecalis) [µg/mL] | MIC (Streptococcus pyogenes) [µg/mL] | MIC (Streptococcus pneumoniae) [µg/mL] | MIC (Escherichia coli [3]) [µg/mL] | MIC (Staphylococcus aureus) [µg/mL] | Kd [4] [µM] | Activity [5] | Ki [6] [µM] | MIC (Haemophilus influenzae [7]) [µg/mL] | Kd [8] [µM] | MIC (Escherichia coli [9]) [µg/mL] | MIC (Haemophilus influenzae [10]) [µg/mL] | Kd [11] [µM] | Kd [13] [µM] | Kd [14] [µM] | Kd [15] [µM] | SMILES | Activity [12]
1 | 210 | 120 |  |  |  |  |  |  |  |  |  |  |  |  |  |  |  |  | CCCCOc1ccc2cc(S(=O)(=O)N[C@H](CCC(=O)O)C(=O)O)ccc2c1 | 
2 | 111 |  | 128 (≈ 299 µM) | > 128 | > 128 | > 128 | > 128 | 79 | Active | 115 | 128 (≈ 299 µM) | 98 | > 128 | > 128 | 106 |  |  |  | O=C1Nc2ccc([N+](=O)[O-])cc2/C1=C1/SC(=S)N(NC(=O)c2cccnc2)C1=O | Active
3 |  |  |  |  |  |  |  |  |  |  |  |  |  |  |  | 5.5 | 2.2 | 7 | N#Cc1ccc(COc2ccc3cc(S(=O)(=O)N[C@H](CCC(=O)O)C(=O)O)ccc3c2)c(F)c1 | 
